Our source for the IC50 values is ChEMBL document CHEMBL1158736, “Cremastrine, a pyrrolizidine alkaloid from Cremastra appendiculata” (J Nat Prod, 2005).

For assay [1], the target named is Muscarinic acetylcholine receptor M3 (Homo sapiens, UniProt P20309). In words: Displacement of [3H]NMS from human cloned muscarinic M3 receptor expressed in insect Sf9 cells. In general terms: Displacement assays read how much labelled ligand stays bound in the presence of the test substance.
In assay [2] the target is T1, Muscarinic acetylcholine receptor M4 (Homo sapiens, UniProt P08173).
T1 sequence (P08173 whole entry): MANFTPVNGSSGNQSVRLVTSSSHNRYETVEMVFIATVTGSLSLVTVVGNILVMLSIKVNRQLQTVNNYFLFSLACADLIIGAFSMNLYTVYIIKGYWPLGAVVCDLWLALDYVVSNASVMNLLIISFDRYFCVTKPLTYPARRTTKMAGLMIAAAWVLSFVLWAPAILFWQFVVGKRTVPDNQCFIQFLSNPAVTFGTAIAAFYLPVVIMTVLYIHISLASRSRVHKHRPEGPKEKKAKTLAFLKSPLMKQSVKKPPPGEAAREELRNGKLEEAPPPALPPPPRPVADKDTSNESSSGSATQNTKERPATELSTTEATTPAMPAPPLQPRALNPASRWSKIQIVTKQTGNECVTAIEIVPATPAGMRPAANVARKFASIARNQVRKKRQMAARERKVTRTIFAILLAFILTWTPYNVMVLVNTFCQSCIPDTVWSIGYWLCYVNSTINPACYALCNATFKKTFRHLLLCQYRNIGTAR
In words: Displacement of [3H]NMS from human cloned muscarinic M4 receptor expressed in insect Sf9 cells.

Assay [3] has as its target T2, Muscarinic acetylcholine receptor M5 (Homo sapiens, UniProt P08912).
T2 sequence (P08912 whole entry): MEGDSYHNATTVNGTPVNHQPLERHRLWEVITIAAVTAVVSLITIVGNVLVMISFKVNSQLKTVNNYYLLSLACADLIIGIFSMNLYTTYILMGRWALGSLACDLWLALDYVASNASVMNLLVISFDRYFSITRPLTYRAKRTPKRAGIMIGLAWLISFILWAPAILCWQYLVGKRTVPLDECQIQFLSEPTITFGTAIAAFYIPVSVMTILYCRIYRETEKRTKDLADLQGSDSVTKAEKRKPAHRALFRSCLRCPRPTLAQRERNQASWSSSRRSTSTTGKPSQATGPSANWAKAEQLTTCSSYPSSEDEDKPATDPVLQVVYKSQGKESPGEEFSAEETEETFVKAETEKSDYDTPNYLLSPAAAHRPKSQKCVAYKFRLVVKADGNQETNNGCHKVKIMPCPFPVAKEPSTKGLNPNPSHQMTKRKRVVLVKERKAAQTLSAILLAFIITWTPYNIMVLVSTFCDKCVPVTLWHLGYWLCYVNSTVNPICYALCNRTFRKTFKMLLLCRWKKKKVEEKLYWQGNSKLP
In words: Displacement of [3H]NMS from human cloned muscarinic M5 receptor expressed in insect Sf9 cells.

Assay [4] has as its target T3, Muscarinic acetylcholine receptor M2 (Homo sapiens, UniProt P08172).
T3 sequence (P08172 whole entry): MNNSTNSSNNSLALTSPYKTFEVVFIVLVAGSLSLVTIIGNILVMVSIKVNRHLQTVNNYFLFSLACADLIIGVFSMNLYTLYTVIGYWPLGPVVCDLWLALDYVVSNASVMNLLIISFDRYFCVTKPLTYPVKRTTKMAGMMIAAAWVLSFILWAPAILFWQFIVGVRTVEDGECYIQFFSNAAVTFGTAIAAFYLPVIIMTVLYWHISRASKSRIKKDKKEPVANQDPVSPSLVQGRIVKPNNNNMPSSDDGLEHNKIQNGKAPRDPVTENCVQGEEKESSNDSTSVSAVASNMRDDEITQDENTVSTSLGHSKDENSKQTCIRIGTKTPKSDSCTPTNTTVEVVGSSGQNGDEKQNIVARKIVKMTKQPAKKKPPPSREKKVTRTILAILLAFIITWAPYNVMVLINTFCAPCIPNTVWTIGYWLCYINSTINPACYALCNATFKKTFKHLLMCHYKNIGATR
In words: Displacement of [3H]NMS from human cloned muscarinic M2 receptor expressed in insect Sf9 cells.

Assay [5] concerns the target T4, Muscarinic acetylcholine receptor M1 (Homo sapiens, UniProt P11229).
T4 sequence (P11229 whole entry): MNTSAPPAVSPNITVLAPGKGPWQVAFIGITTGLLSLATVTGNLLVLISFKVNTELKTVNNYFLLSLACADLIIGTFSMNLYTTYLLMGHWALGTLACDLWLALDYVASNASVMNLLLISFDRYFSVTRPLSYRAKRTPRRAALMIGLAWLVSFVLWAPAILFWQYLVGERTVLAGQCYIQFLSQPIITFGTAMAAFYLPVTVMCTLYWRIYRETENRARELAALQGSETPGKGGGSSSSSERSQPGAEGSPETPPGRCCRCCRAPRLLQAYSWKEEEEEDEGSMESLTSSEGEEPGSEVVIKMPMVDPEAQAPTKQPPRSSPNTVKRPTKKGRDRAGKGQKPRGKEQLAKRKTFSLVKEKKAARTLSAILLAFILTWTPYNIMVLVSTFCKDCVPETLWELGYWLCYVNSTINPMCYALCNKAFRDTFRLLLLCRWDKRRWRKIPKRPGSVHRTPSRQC
Put plainly: Displacement of [3H]NMS from human cloned muscarinic M1 receptor expressed in insect Sf9 cells.

Each structure is given as a SMILES string. A value given as a limit tells only on which side of the number the result lay.

Sequence of Muscarinic acetylcholine receptor M3 (P20309 whole entry): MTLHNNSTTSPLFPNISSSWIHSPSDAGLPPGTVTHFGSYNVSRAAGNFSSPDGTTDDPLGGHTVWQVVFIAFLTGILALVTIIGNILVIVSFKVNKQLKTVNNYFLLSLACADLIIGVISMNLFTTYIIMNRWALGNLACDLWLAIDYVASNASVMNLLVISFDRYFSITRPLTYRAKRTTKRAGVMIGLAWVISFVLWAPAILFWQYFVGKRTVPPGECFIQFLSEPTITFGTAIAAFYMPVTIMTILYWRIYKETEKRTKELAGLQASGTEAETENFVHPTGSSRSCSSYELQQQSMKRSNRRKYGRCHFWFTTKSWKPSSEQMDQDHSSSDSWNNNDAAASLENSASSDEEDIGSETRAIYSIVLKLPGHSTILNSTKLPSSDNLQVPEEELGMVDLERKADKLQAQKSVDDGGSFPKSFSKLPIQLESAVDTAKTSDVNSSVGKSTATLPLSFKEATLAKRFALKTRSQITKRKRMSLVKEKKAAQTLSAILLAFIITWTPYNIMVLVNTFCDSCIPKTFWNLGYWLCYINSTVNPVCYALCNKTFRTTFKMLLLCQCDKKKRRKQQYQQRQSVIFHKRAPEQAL

For orientation: IC50 means the concentration that gives 50% inhibition. Lower therefore signals greater potency in that assay. With `CC[C@@H](C)[C@@H](O)C(=O)OC[C@H]1CCN2CCC[C@@H]12` [CREMASTRINE], the IC50 in assay [1] was 126 nM; in assay [2], 498 nM; in assay [3], 1220 nM; in assay [4], above 5520 nM; in assay [5], 505 nM.
